This is an account of results in PubChem BioAssay AID720601 (Broad Institute, 2013).

For assay [1], the system named is C2C12 mouse myoblast viability, Alamar Blue, 8/24/48 h. Put plainly: cytotoxicity in immortalized mouse myoblasts – cell-based, Alamar Blue fluorescence, 8/24/48 h, dry powder, cytotoxicity control for HRAS target identification, dose response (AID 720601).
Test in assay [2]: as above
The note with it: C2C12 mouse myoblast viability, Alamar Blue, 8/24/48 h, at 35 µM, stronger effect = lower value. (Resazurin is reduced to fluorescent resorufin, in cell work by metabolically active cells.)

Inconclusive results are not listed. Calls of active or inactive are those of the source.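 How the source made its calls: active means compounds lowering the viability dye signal with a fitted AC50 within twice the top dose in all three time points; inconclusive means time points disagree in their calls; inactive means inactive at every time point, including signal rises.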

Consider `CCC(=O)N(c1ccc(OC)c(Cl)c1)C(C(=O)NCCc1ccccc1)c1cccs1` (stereo not given), for which the AC50 in assay [1] was > 70 µM (inactive). The values for the activity in assay [2] (8 h viability change) and in assay [2] (24 h viability change) were 0.483% and -13.2%, respectively.
`Cc1onc(C(=O)N2CCN(C(c3ccncc3)c3ccncc3)CC2)c1[N+](=O)[O-]`: the figures for the activity in assay [2] (8 h viability change) and in assay [2] (24 h viability change) were -0.518% and -6.22%, respectively.

A word on the AC50: it is the concentration giving half of the maximal activity seen.
